Test results published in US20090175805A1, “Neuraminidase Inhibitors and uses thereof” (priority 2006, published 2009).

Tests used:
[1] = tested on: PAO1 biofilm formation; test: Biofilm assay, crystal violet staining in 96-well microtiter plates; type: cell-based, P. aeruginosa; conditions: various concentrations of inhibitor, absorbance at 540 nm
Description: An overnight culture of bacteria grown in LB with shaking was diluted 1:100, and 100 μl aliquots added to 96-well microtiter plates incubated for 24-48 hours at 37° C. (O'Toole et al., (2000) J. Bacteriol. 182:425-431; O'Toole et al., (2000) Annu. Rev. Microbiol. 54:49-79). 0.1% crystal violet was added to each well for 15 minutes, rinsed three times with water then released with the addition of 200 μl of 95% ethanol. Absorbance was determined at 540 nm. For experiments with inhibitors, the following modifications in the assay were used: for oseltamivir (Tamiflu) (Roche, Nutley, N.J.), an overnight culture of bacteria was diluted 1:100 in different doses of inhibitor in LB and 100 μl aliquots plated and assayed as above; for peramivir (BioCryst, Birmingham, Ala.), an overnight culture of bacteria was diluted 1:100 in different doses of inhibitor in LB and incubated at room temperature for 48 hours then diluted 1:2 in LB and 100 μl aliquots plated and assayed as above (McKimm-Breschkin et al., (2003) Antimicrob. Agents. Chemother. 47:2264-2272; Sidwell et al., (2002) Expert Opin. Investig. Drugs 11:859-869). Each sample was tested in sextuplicate and the assay was repeated on three separate occasions and representative data shown. A mean and standard deviation were calculated and statistical significance determined using a two-tailed unpaired t test (Graph Pad Instat version 3.0, Graphpad Software, San Diego, Calif.) to test the null hypothesis that there was no difference in the amount of biofilm production under each test condition, as compared to the media alone or untreated control.

[2] = tested on: PAO1 enzyme (P. aeruginosa PAO1 neuraminidase); test: Neuraminidase assay with fluorescent substrate 2'-(4-methylumbelliferyl)-α-D-N-acetylneuraminic acid; type: biochemical; conditions: peramivir 0.25 and 2.5 μM; 24-48 hours; fluorescence ex 360 nm / em 465 nm
Description: (§1) The PAO1 enzyme (10 μg/ml) was overexpressed and purified from E. coli using the pET28a vector (Novagen, San Diego, Calif.) and a control V. cholera neuraminidase (0.1 U/ml) (Calbiochem, San Diego, Calif.) were incubated with the fluorescent substrate 2′-(4-methylumbelliferyl)-α-D-N-acetylneuraminic acid (Sigma-Aldrich, St. Louis, Mo.) (25 μM in 0.9% NaCl) with or without peramivir (0.25 and 2.5 μM) for 24-48 hours and fluorescence read at excitation 360 nm and emission 465 nm. Each data point was performed in sextuplicate. A mean and standard deviation were calculated and statistical significance determined using a one-way analysis of variance with Bonferroni's post test (Graph Pad Instat version 3.0, Graphpad Software, San Diego, Calif.) to test the null hypothesis that there was no difference in the amount of fluorescence under each test condition, as compared to the untreated control.

[3] = target: T1, V. cholera neuraminidase (Vibrio cholerae serotype O1, UniProt P0C6E9); test: as above; type: biochemical; conditions: peramivir 0.25 and 2.5 μM; 24-48 hours; fluorescence ex 360 nm / em 465 nm
T1 construct: purchased Calbiochem, San Diego, Calif
Description: as §1

T1 sequence (P0C6E9 25-781): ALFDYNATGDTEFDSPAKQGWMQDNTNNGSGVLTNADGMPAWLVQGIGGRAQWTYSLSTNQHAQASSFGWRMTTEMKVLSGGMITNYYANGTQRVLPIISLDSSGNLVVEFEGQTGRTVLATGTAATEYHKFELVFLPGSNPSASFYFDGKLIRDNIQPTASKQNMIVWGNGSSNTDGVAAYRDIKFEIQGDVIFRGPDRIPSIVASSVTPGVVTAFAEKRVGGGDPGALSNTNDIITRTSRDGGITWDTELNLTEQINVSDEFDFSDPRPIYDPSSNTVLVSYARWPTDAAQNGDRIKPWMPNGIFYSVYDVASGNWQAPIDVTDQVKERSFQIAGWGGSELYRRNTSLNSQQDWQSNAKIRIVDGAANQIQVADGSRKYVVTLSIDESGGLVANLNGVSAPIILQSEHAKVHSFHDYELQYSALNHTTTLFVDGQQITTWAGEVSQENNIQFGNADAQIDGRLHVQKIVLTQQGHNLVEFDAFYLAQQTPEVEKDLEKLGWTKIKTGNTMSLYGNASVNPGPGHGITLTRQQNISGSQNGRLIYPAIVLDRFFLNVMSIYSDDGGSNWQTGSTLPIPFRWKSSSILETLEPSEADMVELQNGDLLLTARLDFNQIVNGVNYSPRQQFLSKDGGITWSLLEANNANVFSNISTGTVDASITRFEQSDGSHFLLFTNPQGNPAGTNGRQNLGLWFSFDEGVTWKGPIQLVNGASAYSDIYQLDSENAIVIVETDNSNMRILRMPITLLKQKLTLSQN

| Structure (SMILES) | inhibition of biofilm production by PAO1 [1] | inhibition of neuraminidase activity (PAO1 N'ase) [2] | inhibition of neuraminidase activity (V. cholera N'ase) [3] |
| --- | --- | --- | --- |
| CCOC(=O)C1=C[C@@H](OC(CC)CC)[C@H](NC(C)=O)[C@@H](N)C1 [oseltamivir] | dose dependent inhibition of biofilm production |  |  |
| CCC(CC)[C@H](NC(C)=O)[C@@H]1[C@H](O)[C@@H](C(=O)O)C[C@H]1N=C(N)N [peramivir] | dose dependent inhibition of biofilm production | inhibited | inhibited |
| CC(=O)N[C@H]1[C@H]([C@H](O)[C@H](O)CO)OC(C(=O)O)=C[C@@H]1N=C(N)N [zanamivir] | dose dependent inhibition of biofilm production |  |  |
